# In paper PMC6472337, “L amino acid transporter structure and molecular bases for the asymmetry of substrate interaction” (Nature Communications, 2019):
# Numbering of substitutions follows the chain as printed. Where “and” joins values, the source holds several entries; their conditions need not be identical. Equal entries are not always repeated. Where two headings read alike, the source gives them in different places.
# Experiments:
# [1] = biological target: T1, hAsc-1 S325A mutant (Homo sapiens, UniProt Q9NS82, S325A); assay: [3H]L-alanine uptake in HeLa cells, hAsc-1 S325A; format: cell-based; conditions: WT = 100, n=1-3 and mean
# T1 construct: expressed in transfected cells; host or cells: HeLa
# T1 sequence (Q9NS82 1-523 S325A): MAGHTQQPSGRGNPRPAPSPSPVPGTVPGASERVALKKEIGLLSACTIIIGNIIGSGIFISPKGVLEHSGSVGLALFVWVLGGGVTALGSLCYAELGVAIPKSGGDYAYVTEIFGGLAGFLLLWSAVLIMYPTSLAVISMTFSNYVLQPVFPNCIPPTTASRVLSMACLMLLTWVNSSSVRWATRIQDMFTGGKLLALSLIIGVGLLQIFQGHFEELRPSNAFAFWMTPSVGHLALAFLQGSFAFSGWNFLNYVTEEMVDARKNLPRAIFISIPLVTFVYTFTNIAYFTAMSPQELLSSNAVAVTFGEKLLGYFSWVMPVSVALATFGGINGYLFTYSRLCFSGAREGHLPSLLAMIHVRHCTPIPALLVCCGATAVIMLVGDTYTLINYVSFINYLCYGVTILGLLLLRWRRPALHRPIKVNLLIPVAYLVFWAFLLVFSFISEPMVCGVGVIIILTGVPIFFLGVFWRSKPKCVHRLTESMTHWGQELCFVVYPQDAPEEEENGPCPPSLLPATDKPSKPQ
# T1 sequence (P08195 1-529 partner): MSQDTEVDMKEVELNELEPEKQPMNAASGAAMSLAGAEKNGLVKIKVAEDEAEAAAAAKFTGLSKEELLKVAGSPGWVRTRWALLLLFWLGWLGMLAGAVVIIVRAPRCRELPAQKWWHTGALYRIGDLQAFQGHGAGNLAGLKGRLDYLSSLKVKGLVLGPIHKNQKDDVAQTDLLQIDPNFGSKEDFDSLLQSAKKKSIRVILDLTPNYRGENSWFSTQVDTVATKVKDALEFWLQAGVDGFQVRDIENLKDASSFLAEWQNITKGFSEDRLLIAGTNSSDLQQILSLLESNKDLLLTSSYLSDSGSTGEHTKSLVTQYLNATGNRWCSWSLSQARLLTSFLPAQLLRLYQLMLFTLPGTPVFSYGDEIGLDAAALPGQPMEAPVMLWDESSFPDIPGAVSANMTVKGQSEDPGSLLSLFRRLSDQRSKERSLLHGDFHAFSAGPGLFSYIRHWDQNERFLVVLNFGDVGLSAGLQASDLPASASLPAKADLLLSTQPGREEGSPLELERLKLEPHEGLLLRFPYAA
# Excerpt: (§1) All mutations were verified by sequencing.
# [2] = biological target: T2, hAsc-1 Y280F mutant (Homo sapiens, UniProt Q9NS82, Y280F); assay: [3H]L-alanine uptake in HeLa cells, hAsc-1 Y280F; format: cell-based; conditions: WT = 100, n=1-3 and mean
# T2 construct: expressed in transfected cells; host or cells: HeLa
# T2 sequence (Q9NS82 1-523 Y280F): T1 sequence (Q9NS82 1-523 S325A) with Y280F, A325S
# T2 sequence (P08195 1-529 partner): T1 sequence (P08195 1-529 partner)
# Excerpt: as §1
# [3] = biological target: wild-type BasC; assay: Thermostability-based L-alanine binding assay (GFP-fused protein, SEC); parameters: species or system Carnobacterium sp AT7; conditions: for Kd Wild-type binding curve, normalized signal: n=1-3
# Description: (§2) GFP-fused BasC proteins purified in DM were incubated for 10 min at 4–60 °C (Y236F and K154A mutants) or 4–70 °C (wild-type). In total, 200 µl of 2 mg ml^−1 protein was used for each temperature point. Protein was then centrifuged at 186,000 × g for 30 min. […] Fractions (200 µl) were collected and measured for GFP fluorescence. The peak heights were normalized to those of samples incubated at 4 °C and were fit to the Hill equation using the GraphPad Prism 4 program (GraphPad Software Inc., San Diego, CA). Melting temperatures (Tm) were determined by fitting the curves to a sigmoidal dose-response equation, as previously described.
# (§3) BasC-GFP proteins were then incubated at the calculated Tm for 10 min and centrifuged at 186,000 × g for 30 min. […] Binding affinities were determined by fitting the curves to a sigmoidal dose-response equation.
# [4] = biological target: BasC Y236F mutant; assay: Thermostability-based L-alanine binding assay, Y236F; parameters: species or system Carnobacterium sp AT7; conditions: for Kd Y236F binding curve, normalized signal: n=1-3
# Description: as §2, §3
smiles,measurement,setting,value
C[C@H](N)C(=O)O [L-alanine],transport of 10 µM [3H]L-alanine normalized to wild-type,[1],135.06 and 126.01 and 130.11
same,transport of 10 µM [3H]L-alanine normalized to wild-type,[1]; mean,130.39
same,transport of 10 µM [3H]L-alanine normalized to wild-type,[2],133.65 and 128.34 and 128.02 and 123.34
same,Kd,"[3]; WT BasC, incubated at Tm, L-alanine 0–200 mM, read-out: KD (apparent, thermostability-based)",34.5 ± 2.1 mM
same,"Kd Wild-type binding curve, normalized signal",[3]; [L-Alanine] 0.36 mM,4.340 and 4.304 and 4.417
same,"Kd Wild-type binding curve, normalized signal",[3]; [L-Alanine] 1.50 mM,6.609 and 6.614 and 8.554
same,"Kd Wild-type binding curve, normalized signal",[3]; [L-Alanine] 3.13 mM,10.226 and 10.310 and 9.554
same,"Kd Wild-type binding curve, normalized signal",[3]; [L-Alanine] 6.25 mM,16.111 and 16.814 and 19.554
same,"Kd Wild-type binding curve, normalized signal",[3]; [L-Alanine] 12.50 mM,30.546 and 30.584 and 35.221
same,"Kd Wild-type binding curve, normalized signal",[3]; [L-Alanine] 25 mM,47.282 and 48.296 and 50.554
same,"Kd Wild-type binding curve, normalized signal",[3]; [L-Alanine] 50 mM,70.152 and 71.030 and 72.225
same,"Kd Wild-type binding curve, normalized signal",[3]; [L-Alanine] 100 mM,82.376 and 81.876 and 86.554
same,"Kd Wild-type binding curve, normalized signal",[3]; [L-Alanine] 150 mM,97.076 and 84.776 and 95.225
same,"Kd Wild-type binding curve, normalized signal",[3]; [L-Alanine] 200 mM,100.000
same,Kd,"[3]; individual experiments n=1, n=2, n=3, read-out: Apparent Kd Wild type",35.9 mM and 35.4 mM and 32.2 mM
same,Kd,"[3]; mean of n=3, read-out: Apparent Kd Wild type, mean",34.5 mM
same,Kd,"[4]; Y236F, incubated at Tm, L-alanine 0–200 mM, read-out: KD (apparent, thermostability-based)",42.3 ± 5 mM
same,"Kd Y236F binding curve, normalized signal",[4]; [L-Alanine] 6.25 mM,22.582 and 17.176 and 16.654
same,"Kd Y236F binding curve, normalized signal",[4]; [L-Alanine] 12.50 mM,33.547 and 26.076 and 17.575
same,"Kd Y236F binding curve, normalized signal",[4]; [L-Alanine] 25 mM,44.758 and 42.547 and 31.773
same,"Kd Y236F binding curve, normalized signal",[4]; [L-Alanine] 50 mM,72.230 and 70.914 and 57.702
same,"Kd Y236F binding curve, normalized signal",[4]; [L-Alanine] 100 mM,89.225 and 96.379 and 94.240
same,"Kd Y236F binding curve, normalized signal",[4]; [L-Alanine] 150 mM,94.446 and 95.445 and 86.456
same,"Kd Y236F binding curve, normalized signal",[4]; [L-Alanine] 200 mM,100.000
same,Kd,"[4]; individual experiments n=1, n=2, n=3, read-out: Apparent Kd Y236F",44.1 mM and 36.7 mM and 46.2 mM
same,Kd,"[4]; mean of n=3, read-out: Apparent Kd Y236F, mean",42.3 mM
